According to patent US11174242B2, “Heteroaryl compounds and their use” (Minoryx Therapeutics S.L., priority 2016, dated 2021):
Where a chain is given by its changes, count along the chain named.

How the values were obtained:
[1] = biological target: T1, β-glucocerebrosidase, p.L444P mutation (GM08760A fibroblasts) (Homo sapiens, UniProt P04062, L483P); test: Enhancement of β-glucocerebrosidase activity measured in Gaucher disease fibroblasts (L444P); format: cell-based; settings: increase in enzyme activity vs non-treated cells, GBA fibroblasts bearing L444P
T1 construct: host or cells: human Gaucher patient fibroblasts GM08760A, homozygous L444P
T1 sequence (P04062 40-536 L483P): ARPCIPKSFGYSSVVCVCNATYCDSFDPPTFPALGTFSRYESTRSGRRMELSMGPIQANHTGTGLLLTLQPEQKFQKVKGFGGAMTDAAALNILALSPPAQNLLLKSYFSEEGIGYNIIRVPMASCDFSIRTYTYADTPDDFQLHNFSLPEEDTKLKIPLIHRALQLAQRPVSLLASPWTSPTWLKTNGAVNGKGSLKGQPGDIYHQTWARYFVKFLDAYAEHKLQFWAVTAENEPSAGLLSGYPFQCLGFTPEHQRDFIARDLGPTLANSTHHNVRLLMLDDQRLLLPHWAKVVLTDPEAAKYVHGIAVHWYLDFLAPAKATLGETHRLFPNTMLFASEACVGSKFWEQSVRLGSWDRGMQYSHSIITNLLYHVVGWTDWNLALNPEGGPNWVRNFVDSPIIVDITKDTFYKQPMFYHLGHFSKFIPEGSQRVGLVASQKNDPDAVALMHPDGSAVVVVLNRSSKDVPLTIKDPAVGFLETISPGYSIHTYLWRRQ
Method in brief: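 GM08760A fibroblasts (homozygous p.L444P), 5×10^3 cells/well, treated with compound for 4 days at 37° C. Intact cells then incubated with 4-MU-β-D-glucopyranoside in 0.1 M acetate buffer pH=4 for 1 hour at 37° C.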

[2] = biological target: T2, β-glucocerebrosidase Wild Type (WT) (Homo sapiens, UniProt P04062); test: β-glucocerebrosidase activity enhancement, Wild Type (WT); format: cell-based; settings: increase in enzyme activity vs non-treated cells; for Activity WT: commercially available compounds
T2 construct: endogenous in cells
T2 sequence (P04062 40-536): T1 sequence (P04062 40-536 L483P) with P444L
Protocol: Fibroblasts were seeded at 5×10^3 cells per well in 96-well cell culture plates (Corning, N.Y., USA) in Dulbecco's Modified Eagle's Media (DMEM) supplemented with 10% of fetal bovine serum (FBS), 1% penicillin/streptomycin (P/S) (Thermo Fisher Scientific, Waltham, Mass., USA) and grown at 37° C., 5% CO2 overnight for cell attachment. Subsequently, cells were incubated in the absence or presence of the compounds at the desired concentration for 4 days. After incubation, cells were washed twice with phosphate-buffered saline (PBS) and enzyme activity assay was performed.
β-glucocerebrosidase activity in intact cultured cells was measured by using 4-methylumbelliferyl-β-D-glucopyranoside substrate (Apollo Scientific, UK). Briefly, cells were incubated with 4-MU-β-D-glucopyranoside in 0.1 M acetate buffer pH=4 at 37° C. for 1 hour. […] The liberated 4-MU was measured on a GloMax Discover plate reader (Promega, Madison, Wis., USA) with and excitation at 340 nm and emission at 460 nm. Enzyme activities were expressed in treated cells as X-fold increase in comparison with non-treated cells (X=1 represents no enhancement).
The following compounds listed in Table 2 were purchased (from Enamine, Princeton, Asinex, Vistas-M, and OSSK_541352) and tested in the assay as described above.

[3] = concentrations between 6 and 50 μM, 4 days incubation
[4] = commercially available compounds, 6-50 μM, 4 days

| Compound | Activity L444P [1, 3] | Activity Wild Type (WT) [2] | Activity L444P [1, 4] | Activity WT [2] |
| --- | --- | --- | --- | --- |
| COc1ccc(CN(C)Cc2cc(Nc3ccc(C)cc3)nc(N)n2)cc1 [Example 33, 6-(((4-Methoxybenzyl)(methyl)amino)methyl)-N^4-p-tolylpyrimidine-2,4-diamine] | B (Increase in comparison with non-treated of >1.7-2.0 fold is shown as B) | B (Increase in comparison with non-treated of >1.7-2.0 fold is shown as B) |  |  |
| COc1cccc(Nc2cc(CN(C)Cc3cccc(C#N)c3)nc(N)n2)c1 [Example 37, 3-((((2-Amino-6-(3-methoxyphenylamino)pyrimidin-4-yl)methyl)(methyl)amino)methyl) benzonitrile] | C (Increase in comparison with non-treated of 1.2-1.7 fold is shown as C) | B (Increase in comparison with non-treated of >1.7-2.0 fold is shown as B) |  |  |
| COc1ccc(OC)c(Nc2cc(CN(C)Cc3ccccc3)nc(N)n2)c1 [Example 41, 6-((Benzyl(methyl)amino)methyl)-N^4-(2,5-dimethoxyphenyl)pyrimidine-2,4-diamine] | B (Increase in comparison with non-treated of >1.7-2.0 fold is shown as B) | C (Increase in comparison with non-treated of 1.2-1.7 fold is shown as C) |  |  |
| COc1cccc(Nc2cc(CN(C)Cc3ccccc3)nc(N)n2)c1OC [Example 42, 6-((Benzyl(methyl)amino)methyl)-N^4-(2,3-dimethoxyphenyl)pyrimidine-2,4-diamine] | C (Increase in comparison with non-treated of 1.2-1.7 fold is shown as C) | B (Increase in comparison with non-treated of >1.7-2.0 fold is shown as B) |  |  |
| CN(Cc1ccccc1)Cc1cc(Nc2cccc3c2OCO3)nc(N)n1 [Example 43, N^4-(Benzo[d][1,3]dioxol-4-yl)-6-((benzyl(methyl)amino)methyl)pyrimidine-2,4-diamine] | C (Increase in comparison with non-treated of 1.2-1.7 fold is shown as C) | C (Increase in comparison with non-treated of 1.2-1.7 fold is shown as C) |  |  |
| COc1cccc(Nc2cc(CN(C)Cc3ccc(F)cc3)nc(N)n2)c1 [Example 45, 6-(((4-Fluorobenzyl)(methyl)amino)methyl)-N^4-(3-methoxyphenyl)pyrimidine-2,4-diamine] | C (Increase in comparison with non-treated of 1.2-1.7 fold is shown as C) | C (Increase in comparison with non-treated of 1.2-1.7 fold is shown as C) |  |  |
| COc1ccc(C)cc1Nc1cc(CN(C)Cc2ccccc2)nc(N)n1 [Example 46, 6-((Benzyl(methyl)amino)methyl)-N^4-(2-methoxy-5-methylphenyl)pyrimidine-2,4-diamine] | B (Increase in comparison with non-treated of >1.7-2.0 fold is shown as B) | B (Increase in comparison with non-treated of >1.7-2.0 fold is shown as B) |  |  |
| COc1ccc(CN(C)Cc2cc(Nc3cccc(C)c3)nc(N)n2)cc1 [Example 47, 6-(((4-Methoxybenzyl)(methyl)amino)methyl)-N^4-m-tolylpyrimidine-2,4-diamine] | C (Increase in comparison with non-treated of 1.2-1.7 fold is shown as C) | C (Increase in comparison with non-treated of 1.2-1.7 fold is shown as C) |  |  |
| CCN(Cc1ccccc1)Cc1cc(Nc2cccc(OC)c2)nc(N)n1 [Example 48, 6-((Benzyl(ethyl)amino)methyl)-N^4-(3-methoxyphenyl)pyrimidine-2,4-diamine] | C (Increase in comparison with non-treated of 1.2-1.7 fold is shown as C) | B (Increase in comparison with non-treated of >1.7-2.0 fold is shown as B) |  |  |
| COc1cccc(Nc2cc(CN3CCCC3c3ccccc3)nc(N)n2)c1 (centres unmarked) [Example 50] | C (Increase in comparison with non-treated of 1.2-1.7 fold is shown as C) | C (Increase in comparison with non-treated of 1.2-1.7 fold is shown as C) |  |  |
| Cc1ccc(Nc2cc(CN(C)Cc3ccccc3)nc(N)n2)cc1 [Example 52, 6-((Benzyl(methyl)amino)methyl)-N^4-p-tolylpyrimidine-2,4-diamine] | C (Increase in comparison with non-treated of 1.2-1.7 fold is shown as C) | C (Increase in comparison with non-treated of 1.2-1.7 fold is shown as C) |  |  |
| Cc1cccc(Nc2cc(N)nc(CN(C)Cc3ccccc3)n2)c1 [Example 64, 2-((Benzyl(methyl)amino)methyl)-N^4-m-tolylpyrimidine-4,6-diamine] | B (Increase in comparison with non-treated of >1.7-2.0 fold is shown as B) | B (Increase in comparison with non-treated of >1.7-2.0 fold is shown as B) |  |  |
| COc1cccc(Nc2cc(N)nc(CN(C)Cc3ccccc3)n2)c1 [Example 65, 2-((Benzyl(methyl)amino)methyl)-N^4-(3-methoxyphenyl)pyrimidine-4,6-diamine] | B (Increase in comparison with non-treated of >1.7-2.0 fold is shown as B) | A (Increase in comparison with non-treated of >2.0 fold is shown as A) |  |  |
| COc1ccccc1Nc1nc(N)cc(CN(C)Cc2ccccc2)n1 [Example 67, 6-((Benzyl(methyl)amino)methyl)-N^2-(2-methoxyphenyl) pyrimidine-2,4-diamine] | A (Increase in comparison with non-treated of >2.0 fold is shown as A) | B (Increase in comparison with non-treated of >1.7-2.0 fold is shown as B) |  |  |
| Cc1cccc(Nc2nc(N)cc(CN(C)Cc3ccccc3)n2)c1 [Example 68, 6-((Benzyl(methyl)amino)methyl)-N^2-m-tolylpyrimidine-2,4-diamine] | B (Increase in comparison with non-treated of >1.7-2.0 fold is shown as B) | A (Increase in comparison with non-treated of >2.0 fold is shown as A) |  |  |
| COc1cccc(Nc2nc(N)cc(CN(C)Cc3ccccc3)n2)c1 [Example 69, 6-((Benzyl(methyl)amino)methyl)-N^2-(3-methoxyphenyl)pyrimidine-2,4-diamine] | A (Increase in comparison with non-treated of >2.0 fold is shown as A) | C (Increase in comparison with non-treated of 1.2-1.7 fold is shown as C) |  |  |
| COc1ccc(Nc2nc(N)cc(CN(C)Cc3ccccc3)n2)cc1 [Example 70] | A (Increase in comparison with non-treated of >2.0 fold is shown as A) | B (Increase in comparison with non-treated of >1.7-2.0 fold is shown as B) |  |  |
| Nc1nc(CN2Cc3ccccc3C2)nc(Nc2ccc(F)cc2)n1 [N2-(4-fluorophenyl)-6-(isoindolin-2-ylmethyl)-1,3,5-triazine-2,4-diamine] |  |  | B (Increase in comparison with non-treated of >1.7-2.0 fold is shown as B) | C (Increase in comparison with non-treated of 1.2-1.7 fold is shown as C) |
| COc1cccc(N2CCN(Cc3nc(N)nc(NCc4ccccc4)n3)CC2)c1 [N2-benzyl-6-((4-(3-methoxyphenyl)piperazin-1-yl)methyl)-1,3,5-triazine-2,4-diamine] |  |  | C (Increase in comparison with non-treated of 1.2-1.7 fold is shown as C) | C (Increase in comparison with non-treated of 1.2-1.7 fold is shown as C) |
